# Tests used:
# Assay in all cases: two-electrode voltage clamp, Xenopus oocytes
# Format in all cases: cell-based
# Asu-ACR-16 nAChR [1] = molecular target: T1, Asu-ACR-16 nAChR (Ascaris suum, UniProt A0A0K0QSL7)
# T1 construct: homopentameric nAChR; full-length subunit cRNA injected in Xenopus laevis oocytes; no auxiliary subunit mentioned
# T1 sequence (A0A0K0QSL7 1-504): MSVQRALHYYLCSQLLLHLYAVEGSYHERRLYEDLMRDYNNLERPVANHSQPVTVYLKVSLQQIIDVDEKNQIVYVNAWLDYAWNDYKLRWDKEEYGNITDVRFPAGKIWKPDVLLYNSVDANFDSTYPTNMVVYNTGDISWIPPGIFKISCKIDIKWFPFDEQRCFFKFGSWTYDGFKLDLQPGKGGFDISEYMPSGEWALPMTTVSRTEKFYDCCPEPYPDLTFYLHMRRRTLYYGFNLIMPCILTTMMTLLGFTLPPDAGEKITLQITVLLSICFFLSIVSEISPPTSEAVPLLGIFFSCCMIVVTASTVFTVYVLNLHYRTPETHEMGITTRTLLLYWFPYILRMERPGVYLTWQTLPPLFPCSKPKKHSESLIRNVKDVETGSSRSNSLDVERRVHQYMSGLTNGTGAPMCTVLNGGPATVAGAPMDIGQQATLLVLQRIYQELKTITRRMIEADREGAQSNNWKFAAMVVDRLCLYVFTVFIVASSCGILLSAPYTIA
# Asu-ACR-16 nAChR [2] = molecular target: T1, Asu-ACR-16 nAChR; settings: non-competitive antagonist of ACh-evoked currents, -60 mV
# Asu-ACR-16 nAChR [3] = molecular target: T1, Asu-ACR-16 nAChR; settings: non-competitive inhibition of ACh-evoked currents, -60 mV
smiles,measurement,setting,value
CC(=O)OCC[N+](C)(C)C [acetylcholine],EC50,Asu-ACR-16 nAChR [1],7.89 ± 1.02 µM
Cc1ccc(C(C)C)cc1O [carvacrol],Emax of ACh at 100 μM carvacrol (% of response to 100 μM ACh),Asu-ACR-16 nAChR [2],73.09 ± 1.87%
CC(C)=CCC/C(C)=C/CO [geraniol],Emax of ACh at 100 μM geraniol (% of response to 100 μM ACh; control 97.63 ± 0.92%),Asu-ACR-16 nAChR [3],39.83 ± 1.49%
